The source made the active and inactive calls.
What was measured:
[1] = Luminescence Cell-Based Dose Response HTS to Identify Activators of Luciferase Translation or Activity in H4 […] Cells. [Related pubchem assays: 1829 (Project Summary), 1814 (Primary HTS)]; format: functional
H4 = experiment: Luminescence Cell-Based Dose Response HTS to Identify Activators of 5'UTR Stem-Loop Driven Prion Protein mRNA Translation in H4 Neuroglioblastoma Cells. [Related pubchem assays: 1829 (Project Summary), 1814 (Primary HTS)]; format: functional; conditions: Homo sapiens
J774.A1 = experiment: Confirmation of image-based Screening Assay for Inhibitors of Phagocytosis. [Related pubchem assays (depositor defined):AID1029, AID1643]; format: functional, cell-based; conditions: Mus musculus
[2] = cytotoxicity in HEK-293T cells, dose response, cytotoxicity control for TCR NF-kB inhibitor project, luminescence, T-cell screen hits (AID 489026); format: functional, cell-based;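 note: cells exposed to compound about 14 hours before the viability readout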
HEK293 [3] = experiment: PMA/Ionomycin induced NF-kB luciferase assay in 293- NF-kB-Luc stable cells. [Related pubchem assays: 1299, 1270, 1295, 1375, 1287, 1281, 1293, 1291, 1289, 1280, 465, 1364, 1282, 1372, 1365, 1370, 1367, 1366, 1269, 1373, 1292, 1290, 1302, 1371, 1283, 1271, 1294, 1374, 1368, 1369 ]; format: functional, cell-based; conditions: Homo sapiens
[4] = molecular target: Luciferin 4-monooxygenase (Photinus pyralis, UniProt P08659); experiment: In vitro luciferase assay using purified luciferase. [Related pubchem assays: 1299, 1270, 1295, 1375, 1287, 1281, 1293, 1291, 1289, 1280, 465, 1364, 1282, 1372, 1365, 1370, 1367, 1366, 1266, 1373, 1292, 1290, 1302, 1371, 1283, 1271, 1294, 1374, 1368, 1369 ]
Luciferin 4-monooxygenase, sequence (P08659 whole entry): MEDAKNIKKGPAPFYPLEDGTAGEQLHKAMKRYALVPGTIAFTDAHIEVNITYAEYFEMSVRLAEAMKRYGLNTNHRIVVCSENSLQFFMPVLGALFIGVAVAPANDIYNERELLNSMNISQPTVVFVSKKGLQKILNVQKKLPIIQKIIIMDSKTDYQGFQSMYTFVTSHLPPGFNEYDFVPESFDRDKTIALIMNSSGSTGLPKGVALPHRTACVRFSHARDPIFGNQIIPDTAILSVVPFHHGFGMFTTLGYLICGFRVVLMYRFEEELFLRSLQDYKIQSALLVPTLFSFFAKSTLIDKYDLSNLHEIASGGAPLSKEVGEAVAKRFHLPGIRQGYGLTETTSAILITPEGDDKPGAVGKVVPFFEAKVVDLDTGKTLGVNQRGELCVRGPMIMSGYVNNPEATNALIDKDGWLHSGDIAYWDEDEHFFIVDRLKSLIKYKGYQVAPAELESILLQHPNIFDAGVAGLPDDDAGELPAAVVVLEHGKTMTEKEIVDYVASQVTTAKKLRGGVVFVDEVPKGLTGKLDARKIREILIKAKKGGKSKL

HEK293 [5] = experiment: Cytotoxicity assay in HEK293 cells. [Related pubchem assays (depositor defined):AID1266, AID1269, AID1270, AID1271, AID1280, AID1281, AID1282, AID1283, AID1287, AID1289, AID1290, AID1291, AID1292, AID1293, AID1294, AID1295, AID1299, AID1302, AID1364, AID1365, AID1366, AID1367, AID1369, AID1370, AID1371, AID1372, AID1373, AID1374, AID1375, AID1384 …; format: functional, cell-based; conditions: Homo sapiens
Caspase-3 = molecular target: T1, Caspase-3 (Homo sapiens, UniProt P42574); experiment: procaspase-3 activation potency of dual hits, dose response, counter-screen for dual procaspase-3/7 activator project, biochemical, absorbance, PC-3 D3A mutant (AID 504328)
T1 sequence (P42574 whole entry): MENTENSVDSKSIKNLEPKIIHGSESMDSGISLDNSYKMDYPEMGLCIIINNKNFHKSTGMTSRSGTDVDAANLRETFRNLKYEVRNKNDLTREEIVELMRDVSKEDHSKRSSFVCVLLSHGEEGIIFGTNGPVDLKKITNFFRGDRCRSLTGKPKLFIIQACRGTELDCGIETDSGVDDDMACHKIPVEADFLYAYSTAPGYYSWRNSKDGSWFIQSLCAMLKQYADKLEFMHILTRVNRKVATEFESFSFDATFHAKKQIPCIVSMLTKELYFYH

Caspase-7 = Caspase-7 (Homo sapiens, UniProt P55210); experiment: procaspase-7 activators, dose response, dual procaspase-3/-7 activator project, biochemical, absorbance, human (AID 504330)
HEK293 [6] = experiment: Fluorescence-based counterscreen for potentiators or agonists of NPY-Y2: cell-based high-throughput dose response assay to identify inhibitors of cyclic nucleotide gated ion channel (CNGC) activity. In this assay, the parental HEK293 cell line transfected with a cyclic-nucleotide gated ion channel (CNGC)-based cAMP sensor is used to measure inhibition of isoproterenol-induced CNGC activity by test compound.; format: functional; conditions: Homo sapiens
[7] = molecular target: Lysosomal acid glucosylceramidase (Homo sapiens, UniProt P04062); experiment: Dose response cell-based high throughput screening assay to identify enhancers of beta-glucosidase activity. [Related pubchem assays: 784 ]; format: functional
Lysosomal acid glucosylceramidase, sequence (P04062 whole entry): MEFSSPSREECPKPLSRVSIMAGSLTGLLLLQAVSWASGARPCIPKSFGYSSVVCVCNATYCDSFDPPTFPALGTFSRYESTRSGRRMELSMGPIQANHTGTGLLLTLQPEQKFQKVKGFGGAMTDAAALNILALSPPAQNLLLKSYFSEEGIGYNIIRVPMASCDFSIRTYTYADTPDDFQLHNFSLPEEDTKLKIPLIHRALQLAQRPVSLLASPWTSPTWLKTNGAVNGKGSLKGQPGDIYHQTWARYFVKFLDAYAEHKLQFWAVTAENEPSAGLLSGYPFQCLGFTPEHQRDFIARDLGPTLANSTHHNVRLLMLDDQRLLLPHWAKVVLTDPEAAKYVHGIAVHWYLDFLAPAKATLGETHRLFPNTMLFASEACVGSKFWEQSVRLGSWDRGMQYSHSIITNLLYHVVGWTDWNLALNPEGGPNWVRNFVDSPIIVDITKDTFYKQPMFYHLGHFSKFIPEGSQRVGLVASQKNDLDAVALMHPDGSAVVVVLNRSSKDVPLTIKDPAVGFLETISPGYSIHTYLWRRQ

[8] = molecular target: T2, Neuropeptide Y receptor type 2 (Homo sapiens, UniProt P49146); experiment: Fluorescence-based cell-based high-throughput dose response assay for agonists of NPY-Y2. [Related pubchem assays: 1703 (Screening assay (CNGC inhibitors).), 1359 (Screening assay (NPY-Y2 potentiators or agonists).), 1304 (Screening assay (NPY-Y1 potentiators or agonists).), 1710 (Screening assay (NPY-Y2 agonists).), 1791 (Summary AID.)]; format: functional
T2 sequence (P49146 whole entry): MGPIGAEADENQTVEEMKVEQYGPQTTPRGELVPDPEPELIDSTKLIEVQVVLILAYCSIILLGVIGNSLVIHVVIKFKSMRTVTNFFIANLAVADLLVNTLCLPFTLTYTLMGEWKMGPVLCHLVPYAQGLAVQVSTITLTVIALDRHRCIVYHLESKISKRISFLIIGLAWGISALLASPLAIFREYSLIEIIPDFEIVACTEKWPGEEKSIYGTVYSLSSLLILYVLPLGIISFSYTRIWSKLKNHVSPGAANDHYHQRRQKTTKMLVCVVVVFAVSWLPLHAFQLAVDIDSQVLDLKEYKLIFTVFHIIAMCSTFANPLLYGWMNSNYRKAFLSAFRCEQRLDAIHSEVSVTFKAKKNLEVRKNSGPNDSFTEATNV

[9] = molecular target: T3, Neuropeptide Y receptor type 1 (Homo sapiens, UniProt P25929); experiment: Fluorescence-based counterscreen for agonists of NPY-Y2: cell-based high-throughput dose response assay for agonists of NPY-Y1.; format: functional
T3 sequence (P25929 whole entry): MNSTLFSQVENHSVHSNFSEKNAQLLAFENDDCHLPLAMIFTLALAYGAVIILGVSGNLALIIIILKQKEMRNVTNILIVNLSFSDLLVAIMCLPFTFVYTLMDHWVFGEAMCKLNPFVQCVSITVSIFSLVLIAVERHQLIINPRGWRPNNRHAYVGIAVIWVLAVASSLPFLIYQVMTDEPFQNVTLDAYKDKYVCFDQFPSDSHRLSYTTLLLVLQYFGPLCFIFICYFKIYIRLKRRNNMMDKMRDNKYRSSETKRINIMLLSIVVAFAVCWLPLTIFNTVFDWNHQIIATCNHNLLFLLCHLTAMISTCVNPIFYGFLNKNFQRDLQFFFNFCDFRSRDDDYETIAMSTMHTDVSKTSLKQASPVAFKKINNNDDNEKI

[10] = molecular target: Melanin-concentrating hormone receptor 1 (Homo sapiens, UniProt Q99705); experiment: Late-stage fluorescence-based counterscreen for antagonists of the G-protein coupled receptor 7 (GPR7): cell-based dose response assay to identify antagonists of the melanin-concentrating hormone receptor 1 (MCHR1). [Related pubchem assays (depositor defined):AID1861, AID1880, AID1952, AID2148, AID2251, AID2257, AID485339]; format: functional;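 note: stimulated with 30 nM MCH peptide agonist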
Melanin-concentrating hormone receptor 1, sequence (Q99705 whole entry): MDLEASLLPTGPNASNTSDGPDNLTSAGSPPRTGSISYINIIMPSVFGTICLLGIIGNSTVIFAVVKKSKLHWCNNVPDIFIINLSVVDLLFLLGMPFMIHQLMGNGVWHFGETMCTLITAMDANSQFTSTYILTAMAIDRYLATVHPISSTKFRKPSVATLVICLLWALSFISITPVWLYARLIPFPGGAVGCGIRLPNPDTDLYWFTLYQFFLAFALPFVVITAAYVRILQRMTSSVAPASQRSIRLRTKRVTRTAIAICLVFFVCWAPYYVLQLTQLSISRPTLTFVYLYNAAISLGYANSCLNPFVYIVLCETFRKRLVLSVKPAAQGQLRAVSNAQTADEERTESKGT

[11] = molecular target: T4, Neuropeptides B/W receptor type 1 (Homo sapiens, UniProt P48145); experiment: GPR7 antagonist potency, late-stage follow-up, cell-based, fluorescence, dose response (AID 463251); format: functional
T4 sequence (P48145 whole entry): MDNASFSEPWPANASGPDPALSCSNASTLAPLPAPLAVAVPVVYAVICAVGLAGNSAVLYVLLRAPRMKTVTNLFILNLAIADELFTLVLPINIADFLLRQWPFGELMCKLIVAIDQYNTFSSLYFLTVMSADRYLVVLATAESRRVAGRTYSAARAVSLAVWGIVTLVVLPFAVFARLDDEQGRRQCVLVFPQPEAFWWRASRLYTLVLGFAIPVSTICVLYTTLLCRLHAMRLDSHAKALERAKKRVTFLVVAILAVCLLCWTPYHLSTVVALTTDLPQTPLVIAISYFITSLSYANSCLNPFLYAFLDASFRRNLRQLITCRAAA

With `Cc1cc(=O)oc2cc(OCC3CC(c4ccccc4Cl)=NO3)ccc12` (stereo not given) the EC50 [1] was 11.7 µM (active), the EC50 (H4) was > 120 µM (not active) and the IC50 (J774.A1) was > 25 µM (inactive). For the same molecule, the IC50 [2] was > 80 µM (inactive).
For `C/C(=N\NC(=O)c1cccc([N+](=O)[O-])c1)c1ccccn1`, the EC50 (HEK293 [3]) was 6.12 µM (not active), the EC50 [4] was > 8 µM (not active) and the EC50 (HEK293 [5]) was 10.2 µM (inactive).
With `COc1ccc(C(=O)N/N=C/c2ccc3cccc(OCc4ccccc4)c3n2)cc1` the EC50 (Caspase-3) was > 85.3 µM (inactive) and the EC50 (Caspase-7) was > 85.3 µM (inactive).
In the case of `O=C(NCCCn1ccnc1)Nc1ccc(Cl)cc1`, the EC50 (HEK293 [6]) is reported as > 35.4 µM (not active), the EC50 [7] is reported as > 50 µM (not active) and the EC50 [8] is reported as > 35.4 µM (not active). The EC50 [9] was > 35.4 µM (not active).
For `Cc1ccc(-n2ncc(Cl)c(Oc3ccc(F)cc3C)c2=O)cc1`, the IC50 [10] was 17 µM (inactive) and the IC50 [11] was 10 µM (active).
